Measurements taken from patent US4108724A, “Method for preparing antibiotic P-2563 using Pseudomonas fluorescens” (Takeda Chemical Industries, Ltd., priority 1975, dated 1978).
≈ marks a conversion by molar mass, not a printed value. Entries after “also recorded” stand apart in the source; their conditions may differ. Counter-ions that a name gives are not always drawn.

Legend:
[1] = Solubilities; type: physicochemical; conditions: for Solubilities: insoluble: insoluble solvents; for Solubilities: readily soluble: readily soluble solvents; for Solubilities: sparingly soluble: sparingly soluble solvents
[2] = Stability against pH; type: physicochemical; conditions: outside the stable pH range
[3] = Toxicity (general statement)
[4] = test system: gram-positive and gram-negative bacteria; test: Antimicrobial spectrum (general statement); type: cell-based
Protocol: (§1) Procedure I : Cultivated on heart infusion agar medium (Difco) at 37° C for 24 hours.
(§2) Procedure II : Cultivated on heart infusion agar medium with 1 % added glycerin at 37° C for 48 hours.
(§3) Procedure III : Cultivated on glucose bouillon agar medium at 28° C for 96 hours.

[5] = test system: bacteria of the genus Pseudomonas; test: Antimicrobial spectrum (general statement); type: cell-based
Protocol: as §1

[6] = test system: Mycobacterium species; test: Antimicrobial spectrum, minimal inhibitory concentration (Procedure II); type: cell-based; conditions: Procedure II: heart infusion agar with 1 % added glycerin, 37° C, 48 hours
Protocol: (§4) In the table, procedures I to III mean the following:
as §2

[7] = test system: Bacillus subtilis; test: Antimicrobial spectrum, minimal inhibitory concentration (Procedure I); type: cell-based; conditions: Procedure I: heart infusion agar, 37° C, 24 hours
Protocol: as §4, §1

[8] = test system: Proteus vulgaris; test: as above; type: cell-based; conditions: Procedure I: heart infusion agar, 37° C, 24 hours
Protocol: as §4, §1

[9] = test system: Escherichia coli; test: as above; type: cell-based; conditions: Procedure I: heart infusion agar, 37° C, 24 hours
Protocol: as §4, §1

[10] = test system: Pseudomonas aeruginosa; test: as above; type: cell-based; conditions: Procedure I: heart infusion agar, 37° C, 24 hours
Protocol: as §4, §1

[11] = test system: Klebsiella pneumoniae; test: as above; type: cell-based; conditions: Procedure I: heart infusion agar, 37° C, 24 hours
Protocol: as §4, §1

[12] = test system: Proteus mirabilis; test: as above; type: cell-based; conditions: Procedure I: heart infusion agar, 37° C, 24 hours
Protocol: as §4, §1

[13] = test system: Staphylococcus aureus; test: as above; type: cell-based; conditions: Procedure I: heart infusion agar, 37° C, 24 hours
Protocol: as §4, §1

[14] = test system: Asperigillus fumigatus; test: Antimicrobial spectrum, minimal inhibitory concentration (Procedure III); type: cell-based; conditions: Procedure III: glucose bouillon agar, 28° C, 96 hours
Protocol: as §4, §3

[15] = test system: Microsporum gypseum; test: as above; type: cell-based; conditions: Nannizzia gypsea; Procedure III: glucose bouillon agar, 28° C, 96 hours
Protocol: as §4, §3

[16] = test system: Trichophyton mentagrophytes; test: as above; type: cell-based; conditions: Procedure III: glucose bouillon agar, 28° C, 96 hours
Protocol: as §4, §3

[17] = test system: Candida albicans; test: as above; type: cell-based; conditions: Procedure III: glucose bouillon agar, 28° C, 96 hours
Protocol: as §4, §3

[18] = test system: Cryptococcus neoformans; test: as above; type: cell-based; conditions: Procedure III: glucose bouillon agar, 28° C, 96 hours
Protocol: as §4, §3

[19] = Acute toxicity in mice (intravenous); type: in vivo; conditions: for LD50: mouse, in vivo

With CCC(=O)N[C@H]1[C@H](O)[C@@H](O)C(OC(C(O)CN)C(N)C(O)CO)O[C@@H]1CO (stereo partly drawn) [P-2563 (I) monohydrochloric acid salt] the “Solubilities: insoluble” value [1] was “insoluble in chloroform, ethyl acetate, ether, n-hexane and petroleum ether”, the “Solubilities: readily soluble” value [1] was “Readily soluble in water and methanol” and the “Solubilities: sparingly soluble” value [1] was “sparingly soluble in ethanol, n-propanol, butanol and acetone”. The “Stability: decomposition” value [2] was “decomposes gradually with a loss of activity under strongly basic (above pH 8) and strongly acidic (below pH 3) conditions”.
With NCC(O)C(OC1O[C@H](CO)[C@@H](N)[C@H](O)[C@H]1O)C(N)C(O)CO (stereo partly drawn) [P-2563 (III)] the toxicity [3] was “low toxicity”, the “Solubilities: insoluble” value [1] was “insoluble in chloroform, ethylacetate, ether, n-hexane and petroleum ether” and the “Solubilities: readily soluble” value [1] was “Readily soluble in water and methanol”. For the same compound, the “Solubilities: sparingly soluble” value [1] was “sparingly soluble in ethanol, n-propanol, butanol and acetone”, the “solubility in water (general statement)” value [1] was “water-soluble” and the “Stability: decomposition” value [2] was “decomposes gradually under strongly acidic (below pH 3) and strongly basic (above pH 13) conditions”. The antimicrobial spectrum [4] was “broad antimicrobial spectrum, especially against gram-positive and gram-neg ative bacteria”.
In the case of CC(=O)N[C@H]1[C@H](O)[C@@H](O)C(OC(C(O)CN)C(N)C(O)CO)O[C@@H]1CO (stereo partly drawn) [P-2563 (II)], the “inhibitory to bacteria of the genus Pseudomonas” value [5] is reported as “particularly to bacteria of the genus Pseudomonas”, the MIC [6] is reported as 200 µg/mL (≈ 522 µM) and the MIC [7] is reported as 70 µg/mL (≈ 183 µM). The MIC [8] was 100 µg/mL (≈ 261 µM), the MIC [9] was 50 µg/mL (≈ 130 µM) and the MIC [10] was 300 µg/mL (≈ 782 µM). For the same compound, the MIC [11] was 50 µg/mL (≈ 130 µM), the MIC [12] was 200 µg/mL (≈ 522 µM) and the MIC [13] was 200 µg/mL (≈ 522 µM). The toxicity [3] was “low toxicity”, the “Solubilities: insoluble” value [1] was “insoluble in chloroform, ethyl acetate, ether, n-hexane and petroleum ether” and the “Solubilities: readily soluble” value [1] was “Readily soluble in water and methanol”. For the same compound, the “Solubilities: sparingly soluble” value [1] was “sparingly soluble in ethanol, n-propanol, butanol and acetone”, the “solubility in water (general statement)” value [1] was “water-soluble” and the MIC [14] was over 500 µg/mL. The MIC [15] was over 500 µg/mL, the MIC [16] was over 500 µg/mL and the MIC [17] was over 500 µg/mL. The MIC [18] was over 500 µg/mL, the “Stability: decomposition” value [2] was “decmposes gradually with a loss of activity under strongly basic (above pH 8) and strongly acidic (below pH 3) conditions” and the antimicrobial spectrum [4] was “broad antimicrobial spectrum, especially against gram-positive and gram-neg ative bacteria; also recorded: inhibitory to gram-positive and gram-negative bacteria”. For the same compound, the toxicity [19] was “extremely low in toxicity” and the LD50 [19] was over 400 mg/kg.
With CCC(=O)N[C@H]1[C@H](O)[C@@H](O)C(OC(C(O)CN)C(N)C(O)CO)O[C@@H]1CO (stereo partly drawn) [P-2563 (I)] the “inhibitory to bacteria of the genus Pseudomonas” value [5] was “particularly to bacteria of the genus Pseudomonas”, the MIC [6] was 200 µg/mL (≈ 503 µM) and the MIC [7] was 30 µg/mL (≈ 75.5 µM). For the same compound, the MIC [8] was 30 µg/mL (≈ 75.5 µM), the MIC [9] was 30 µg/mL (≈ 75.5 µM) and the MIC [10] was 50 µg/mL (≈ 126 µM). It also gave an MIC [11] of 12.5 µg/mL (≈ 31.5 µM), an MIC [12] of 200 µg/mL (≈ 503 µM) and an MIC [13] of 50 µg/mL (≈ 126 µM). For the same compound, the toxicity [3] was “low toxicity”, the “Solubilities: insoluble” value [1] was “insoluble in chloroform, ethyl acetate, ether, n-hexane and petroleum ether” and the “Solubilities: readily soluble” value [1] was “Readily soluble in water, methanol and ethanol”. The “Solubilities: sparingly soluble” value [1] was “sparingly soluble in n-propanol, butanol and acetone”, the “solubility in water (general statement)” value [1] was “water-soluble” and the MIC [14] was over 500 µg/mL. For the same compound, the MIC [15] was over 500 µg/mL, the MIC [16] was over 500 µg/mL and the MIC [17] was over 500 µg/mL. The MIC [18] was over 500 µg/mL, the “Stability: decomposition” value [2] was “decomposes gradually with a loss of activity under strongly basic (above pH 8) and strongly acidic (below pH 3) conditions” and the antimicrobial spectrum [4] was “broad antimicrobial spectrum, especially against gram-positive and gram-neg ative bacteria; also recorded: inhibitory to gram-positive and gram-negative bacteria”. The toxicity [19] was “extremely low in toxicity” and the LD50 [19] was over 400 mg/kg.
